Laboratory results from patent EP4671245A1, “HETEROAROMATIC RING COMPOUND SERVING AS CDK7 KINASE INHIBITOR, PREPARATION THEREOF, AND USE THEREOF” (Jiangsu Chia Tai Fenghai Pharmaceutical Co., Ltd., priority 2023, dated 2024).
Where two headings read alike, the source gives them in different places.

Experiments:
[1] = Pharmacokinetic study in ICR mice (oral gavage and intravenous, plasma LC-MS/MS); type: in vivo; conditions: for Vd / AUC(0-t) / Cmax / MRT last / clearance / half-life / AUC(0-inf) / concentration at 8 h / Tmax / bioavailability: mouse, plasma; for Vd: iv, 10 mg/kg; for AUC(0-inf): read-out: AUCINF_obs; for concentration at 8 h: read-out: Clast; for bioavailability: read-out: Bioavailability (F)
Method: Each group consisted of 12 animals. The dosing vehicle was 10% DMSO + 10% polyoxyethylene castor oil + 80% physiological saline solution. The oral gavage group was fasted for approximately 12 hours prior to dosing and allowed food 4 hours after administration. Water was not restricted during the experiment. Approximately 0.2 mL of blood was collected from the orbital sinus at the following time points: pre-dose and 5, 15, 30 minutes, 1, 2, 4, 6, 8, and 24 hours post-dose. Blood was collected into EP tubes containing EDTA-K2 as anticoagulant and placed on ice. Plasma was separated by centrifugation at 3500 rpm for 5 minutes at 4°C within 1 hour of blood collection. Plasma samples were stored at -20°C until analysis. […] Pharmacokinetic parameters were calculated using WinNonlin software.

HCC70 = test: Anti-proliferative activity on tumor cells (Cell Titer-Glo), HCC70; type: cell-based; conditions: HCC70, 7 days
Method: (§1) Tumor cell lines including HCT-116, MDA-MB-468, Jurkat, HCC70, and MDA-MB-436 were cultured in their respective growth media. Cells were seeded into 384-well plates at densities of 600, 300, 800, 800, and 1000 cells/well (in 18 µL/well), respectively, and incubated overnight at 37°C under 5% CO2 (MDA-MB-468 cells were incubated overnight at 37°C under 100% air). Test sample stock solutions were prepared in DMSO at 10 mM and serially diluted 1:3 across 10 concentrations in 1% DMSO to prepare 10X intermediate dilution plates. Then, 2 µL/well of the 1oX intermediate dilution was added to the cell plates to achieve the final assay concentrations: 10000, 3333, 1111, 370, 123, 41, 14, 4.6, and 1.5 nM. HCT-116, Jurkat, and HCC70 cell plates were incubated for 3, 7, and 7 days at 37°C with 5% CO2, respectively (MDA-MB-468 cell plates were incubated for 7 days at 37°C with 100% air). After treatment, Cell Titer-Glo reagent was removed from -20°C storage and equilibrated to room temperature. Then, 20 µL/well of Cell Titer-Glo reagent was added to each well and incubated for 10 minutes. After the 10-minute incubation, luminescence was measured using a microplate reader. Data were analyzed using Excel and the IC50 values were calculated using GraphPad Prism 7.0 software.

MDA-MB-468 = test: Anti-proliferative activity on tumor cells (Cell Titer-Glo), MDA-MB-468; type: cell-based; conditions: MDA-MB-468, 7 days, 100% air
Method: as §1

HCT-116 = test: Anti-proliferative activity on tumor cells (Cell Titer-Glo), HCT-116; type: cell-based; conditions: HCT-116, 3 days
Method: as §1

Jurkat = test: Anti-proliferative activity on tumor cells (Cell Titer-Glo), Jurkat; type: cell-based; conditions: 7 days
Method: as §1

CDK7/CycH/MAT1 = CDK7/CycH/MAT1 (Homo sapiens, UniProt P50613); test: Inhibition of CDK7/CycH/MAT1 kinase activity (ADP-Glo); type: biochemical; conditions: IC50, ATP 30 µM, substrate 0.1 µM, 60 minutes at 25°C
Method: The CDK7/CycH/MAT1 protein was thawed on ice, and the remaining reagents were equilibrated to room temperature. The CDK7/CycH/MAT1 protein and ATP/substrate were diluted to the corresponding concentrations using enzyme reaction buffer (50 mM Hepes, 10 mM MgCl2, 0.01% Brij35, 1 mM EGTA, 2 mM DTT). The test compounds were added to a 384-well white low-volume enzyme assay plate at 20 nL per well, followed by the addition of the prepared CDK7/CycH/MAT1 protein (2 µL/well), mixed well, and incubated at 25°C for 10 minutes. The reaction was initiated by adding ATP/substrate and allowed to proceed at 25°C for 60 minutes. The final concentrations of each component in the enzyme reaction system were as follows: CDK7/CycH/MAT1 protein, 3.5 ng/µL; ATP, 30 µM; substrate, 0.1 µM. The concentrations of the test compounds ranged from high to low as follows: 5000, 1667, 556, 185, 62, 21, 7, 2, 1, and 0.3 nM. After completion of the enzymatic reaction, 4 µL of ADP-Glo Reagent was added to each well and incubated at 25°C for 40 minutes. Subsequently, 8 µL of Kinase Detection Reagent was added to each well and incubated at25°C for another 40 minutes. Chemiluminescence signals were recorded using a microplate reader, and the data were used to generate dose-response curves and calculate IC50 values.

[2] = male ICR mice, iv. 10mg/kg, read-out: Vss
[3] = male ICR mice, iv. 10mg/kg, read-out: Vz

Chain of CDK7/CycH/MAT1 (P50613 whole entry, species assumed): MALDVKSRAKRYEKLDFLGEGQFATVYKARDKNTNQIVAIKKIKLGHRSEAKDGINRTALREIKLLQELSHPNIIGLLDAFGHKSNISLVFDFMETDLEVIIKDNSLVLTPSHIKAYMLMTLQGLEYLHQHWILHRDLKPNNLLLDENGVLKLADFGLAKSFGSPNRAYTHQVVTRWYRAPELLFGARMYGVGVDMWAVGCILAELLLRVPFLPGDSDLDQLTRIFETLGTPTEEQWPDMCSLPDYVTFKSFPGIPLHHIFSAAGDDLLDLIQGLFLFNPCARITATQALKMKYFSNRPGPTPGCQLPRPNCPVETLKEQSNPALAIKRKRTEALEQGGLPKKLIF
Chain of CDK7/CycH/MAT1 (P51946 whole entry partner, species assumed): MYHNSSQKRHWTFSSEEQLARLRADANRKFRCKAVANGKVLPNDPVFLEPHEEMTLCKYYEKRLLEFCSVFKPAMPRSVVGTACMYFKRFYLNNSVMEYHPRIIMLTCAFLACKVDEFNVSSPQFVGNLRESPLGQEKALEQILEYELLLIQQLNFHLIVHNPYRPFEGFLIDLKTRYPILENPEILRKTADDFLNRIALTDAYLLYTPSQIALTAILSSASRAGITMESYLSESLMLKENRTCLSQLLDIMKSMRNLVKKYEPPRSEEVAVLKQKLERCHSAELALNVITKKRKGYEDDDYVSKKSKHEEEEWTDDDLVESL
Chain of CDK7/CycH/MAT1 (P51948 whole entry partner, species assumed): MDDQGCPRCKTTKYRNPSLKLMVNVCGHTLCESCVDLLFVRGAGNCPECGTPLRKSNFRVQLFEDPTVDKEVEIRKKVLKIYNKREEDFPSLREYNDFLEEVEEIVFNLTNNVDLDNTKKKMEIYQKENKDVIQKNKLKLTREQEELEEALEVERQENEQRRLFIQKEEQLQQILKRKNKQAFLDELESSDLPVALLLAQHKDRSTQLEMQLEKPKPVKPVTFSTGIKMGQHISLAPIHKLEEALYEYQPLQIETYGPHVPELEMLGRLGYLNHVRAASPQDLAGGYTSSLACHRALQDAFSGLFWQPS

| SMILES | Tlast ([1]; male ICR mice, iv. 10mg/kg) | Tlast ([1]; male ICR mice, po. 10mg/kg) | AUC(0-t) ([1]; male ICR mice, iv. 10mg/kg) | Cmax ([1]; male ICR mice, iv. 10mg/kg) | MRT last ([1]; male ICR mice, iv. 10mg/kg) | clearance ([1]; male ICR mice, iv. 10mg/kg) | half-life ([1]; male ICR mice, iv. 10mg/kg) | AUC(0-inf) ([1]; male ICR mice, iv. 10mg/kg) | AUC(0-t) ([1]; male ICR mice, po. 10mg/kg) | Cmax ([1]; male ICR mice, po. 10mg/kg) | MRT last ([1]; male ICR mice, po. 10mg/kg) | Tmax ([1]; male ICR mice, po. 10mg/kg) | half-life ([1]; male ICR mice, po. 10mg/kg) | AUC(0-inf) ([1]; male ICR mice, po. 10mg/kg) | bioavailability ([1]; male ICR mice, po. 10mg/kg) | IC30 (HCC70) | IC30 (MDA-MB-468) | IC30 (HCT-116) | IC30 (Jurkat) | IC50 (CDK7/CycH/MAT1) | further results |
| --- | --- | --- | --- | --- | --- | --- | --- | --- | --- | --- | --- | --- | --- | --- | --- | --- | --- | --- | --- | --- | --- |
| CC(C)c1cnn2c(NCc3ccccc3)cc(NC[C@H]3CCNC[C@@H]3O)nc12 [CT7001, reference compound] | 8 H | 8 h | 8120 ng·h/mL | 17400 ng/mL | 1.3 h | 20 mL/min/kg | 1.5 h | 8400 ng·h/mL | 541 ng·h/mL | 99 ng/mL | 3.6 h | 2 h | 2.5 h | 653 ng·h/mL | 7.8% | 518.9 nM | 602.2 nM | 463.7 nM | 473.3 nM |  | Vz ([1]; male ICR mice, po. 10mg/kg): 55.15 L/kg; Vd ([1]; male, ICR, iv. 10mg/kg, read-out: Vss): 1.91 L/kg; Vd ([1]; male, ICR, iv. 10mg/kg, read-out: Vz): 2.62 L/kg; concentration at 8 h ([1]; male ICR mice, iv. 10mg/kg): 126 ng/mL; concentration at 8 h ([1]; male ICR mice, po. 10mg/kg): 31 ng/mL |
| [2H]C([2H])(Nc1cc(NC[C@H]2CCNC[C@@H]2O)nc2c(C(C)C)cnn12)c1ccccc1 [Compound 8] |  |  |  |  |  |  |  |  |  |  |  |  |  |  |  |  | 350.4 nM | 231.7 nM | 329.4 nM |  |  |
| N#Cc1cnn2c(NCc3ccccc3)cc(NC[C@H]3CCNC[C@@H]3O)nc12 [Compound 22] |  |  |  |  |  |  |  |  |  |  |  |  |  |  |  |  | 2910.0 nM | 3453.0 nM | 4087.0 nM | 4.31 nM |  |
| C#CCNc1cc(NC[C@H]2CCNC[C@@H]2O)nc2c(C(C)C)cnn12 [Compound 33] | 24 H | 6 h | 1510 ng·h/mL | 990 ng/mL | 2.4 h | 104 mL/min/kg | 10 h | 1600 ng·h/mL | 65 ng·h/mL | 26 ng/mL | 2.4 h | 0.5 h | 2.9 h | 88 ng·h/mL | 5.5% | 501.9 nM | 1101 nM | 788.3 nM | 200.8 nM | 2.7 nM | Clast ([1]; male ICR mice, iv. 10mg/kg): 6 ng/mL; T1/2 ([1]; male ICR mice, iv. 10mg/kg): longer half-life; Vss ([1]; male ICR mice, iv. 10mg/kg): higher steady-state apparent volume of distribution; Clast ([1]; male ICR mice, po. 10mg/kg): 5 ng/mL; Vd [1, 2]: 27.8 L/kg; Vd [1, 3]: 90 L/kg |
| CC#CCNc1cc(NC[C@H]2CCNC[C@@H]2O)nc2c(C(C)C)cnn12 [Compound 38] |  |  |  |  |  |  |  |  |  |  |  |  |  |  |  | 968.8 nM | 765.9 nM | 391.3 nM | 858.8 nM | 18.9 nM |  |
| C=CCNc1cc(NC[C@H]2CCNC[C@@H]2O)nc2c(C(C)C)cnn12 [Compound 41] | 8 H | 8 h | 2960 ng·h/mL | 4360 ng/mL | 1.1 h | 55 mL/min/kg | 2.3 h | 3020 ng·h/mL | 445 ng·h/mL | 150 ng/mL | 2.5 h | 2 h | 1.5 h | 462 ng·h/mL | 15% |  |  |  |  | 6.3 nM | Clast ([1]; male ICR mice, iv. 10mg/kg): 19 ng/mL; Vss ([1]; male ICR mice, iv. 10mg/kg): higher steady-state apparent volume of distribution; Bioavailability (F) ([1]; male ICR mice, po. 10mg/kg): better oral bioavailability; Clast ([1]; male ICR mice, po. 10mg/kg): 8 ng/mL; Vd [1, 2]: 4.22 L/kg; Vd [1, 3]: 10.9 L/kg |
| CC(C)c1cnn2c(NCC3CC3)cc(NC[C@H]3CCNC[C@@H]3O)nc12 [Compound 45] |  |  |  |  |  |  |  |  |  |  |  |  |  |  |  | 596.4 nM | 851.8 nM | 429.4 nM | 1126 nM | 21.2 nM |  |
